# Counter-ions that a name gives are not always drawn.
# How the values were obtained:
# σ1-receptor = σ1-receptor (Cavia porcellus, UniProt Q60492); assay: σ1-receptor binding assay, [3H](+)-pentazocine, brain membranes; details: [3H](+)-pentazocine 0.5 nM, guinea pig brain membranes; for % Binding σ1 10^−7M: compound 10^−7M; for % Binding σ1 10^−8M: compound 10^−8M
# Description: Brain membrane preparation and binding assays for the σ1-receptor were performed as described (DeHaven-Hudkins et al., 1992) with some modifications. In brief, guinea pig brains were homogenized in 10 vols. (w/v) of Tris-HCl 50 mM 0.32 M sucrose, pH 7.4, with a Kinematica Polytron PT 3000 at 15000 r.p.m. for 30 s. The homogenate was centrifuged at 1000 g for 10 min at 4° C. and the supernatants collected and centrifuged again at 48000 g for 15 min at 4° C. The pellet was resuspended in 10 volumes of Tris-HCl buffer (50 mM, pH 7.4), incubated at 37° C. for 30 min, and centrifuged at 48000 g for 20 min at 4° C. Following this, the pellet was resuspended in fresh Tris-HCl buffer (50 mM, pH 7.4) and stored on ice until use.
# Each assay tube contained 10 μL of [^3H](+)-pentazocine (final concentration of 0.5 nM), 900 μL of the tissue suspension to a final assay volume of 1 mL and a final tissue concentration of approximately 30 mg tissue net weight/mL. […] All tubes were incubated at 37° C. for 150 min before termination of the reaction by rapid filtration over Schleicher & Schuell GF 3362 glass fibre filters [previously soaked in a solution of 0.5% polyethylenimine for at least 1 h]. Filters were then washed with four times with 4 mL of cold Tris-HCl buffer (50 mM, pH 7.4). Following addition of scintillation cocktail, the samples were allowed to equilibrate overnight. The amount of bound radioactivity was determined by liquid scintillation spectrometry using a Wallac Winspectral 1414 liquid scintillation counter.
# sigma (σ-2) site = sigma (σ-2) site (Homo sapiens, UniProt Q5BJF2); details: cited from earlier work
# sigma 1 (σ-1) site = sigma 1 (σ-1) site (Homo sapiens, UniProt Q99720); details: cited from earlier work
# Chain of sigma 1 (σ-1) site (Q99720 whole entry): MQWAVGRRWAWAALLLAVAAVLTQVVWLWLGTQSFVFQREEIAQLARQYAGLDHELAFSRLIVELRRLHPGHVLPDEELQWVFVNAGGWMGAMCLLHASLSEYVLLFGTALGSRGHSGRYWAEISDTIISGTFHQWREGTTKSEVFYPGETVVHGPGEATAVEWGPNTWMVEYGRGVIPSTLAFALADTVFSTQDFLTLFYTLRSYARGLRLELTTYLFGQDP
# [1] = cited from earlier work
# Chain of σ1-receptor (Q60492 whole entry): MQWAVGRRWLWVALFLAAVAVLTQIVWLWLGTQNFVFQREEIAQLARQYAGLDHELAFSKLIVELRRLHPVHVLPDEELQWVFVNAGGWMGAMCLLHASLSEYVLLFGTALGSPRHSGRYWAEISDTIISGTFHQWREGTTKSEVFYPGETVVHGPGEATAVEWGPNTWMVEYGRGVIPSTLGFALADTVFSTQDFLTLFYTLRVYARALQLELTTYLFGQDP
# Chain of sigma (σ-2) site (Q5BJF2 whole entry): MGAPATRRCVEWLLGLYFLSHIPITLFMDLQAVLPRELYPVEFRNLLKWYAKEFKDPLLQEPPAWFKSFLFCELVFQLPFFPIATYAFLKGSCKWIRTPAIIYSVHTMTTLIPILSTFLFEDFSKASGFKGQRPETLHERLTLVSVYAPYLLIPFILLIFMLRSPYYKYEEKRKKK
Compound,melting point [°C],% Binding σ1 10^−7M (σ1-receptor) [%],% Binding σ1 10^−8M (σ1-receptor) [%],other results
"O=C(O)C(=O)O.OC(COc1ccn(-c2ccc(Cl)c(Cl)c2)n1)CN1CCCCC1 (stereo not shown) [Example 2, 1-(1-(3,4-dichlorophenyl)-1H-pyrazol-3-yloxy)-3-(piperidin-1-yl)propan-2-ol oxalate]",116 to 119,72.2,4.2,
SKF 10047,,,,affinity for the sigma (σ-2) site (sigma (σ-2) site): micromolar affinity; affinity for the sigma 1 (σ-1) site (sigma 1 (σ-1) site): nanomolar affinity
C[C@@H]1CN(CCCn2c3ccccc3c3ccccc32)C[C@H](C)N1 [rimcazole],,,,clinical effects in the treatment of psychosis [1]: shows effects in the treatment of psychosis
"O=C(O)C(=O)O.OC(COc1ccn(-c2ccc(Cl)c(Cl)c2)n1)CN1CCCC1 (stereo not shown) [Example 3, 1-(1-(3,4-dichlorophenyl)-1H-pyrazol-3-yloxy)-3-(pyrrolidin-1-yl)propan-2-ol oxalate]",,55.9,32.6,
"OC(COc1ccn(-c2ccc(Cl)c(Cl)c2)n1)CN1CCOCC1 (stereo not shown) [Example 1, 1-(1-(3,4-dichlorophenyl)-1H-pyrazol-3-yloxy)-3-morpholinopropan-2-ol oxalate]",,70.3,22.2,
CN1CCN(CC(O)COc2ccn(-c3ccc(Cl)c(Cl)c3)n2)CC1.O=C(O)C(=O)O (stereo not shown),189 to 192,,,
"Clc1ccc(-n2ccc(OCCOCCN3CCCCC3)n2)cc1Cl [Example 6, 1-(2-(2-(1-(3,4-dichlorophenyl)-1H-pyrazol-3-yloxy)ethoxy)ethyl)piperidine]",,82.8,23.7,
"Clc1ccc(-n2ccc(OCCOCCN3CCOCC3)n2)cc1Cl.O=C(O)C(=O)O [Example 7, 4-(2-(2-(1-(3,4-dichlorophenyl)-1H-pyrazol-3-yloxy)ethoxy)ethyl)morpholine oxalate]",154 to 156,61.6,25.8,
